# Assay results: US11707440B2 (priority 2017, dated 2023)
# Experiments:
# [1] = tested on: subjects with MDD at imminent risk for suicide; conditions: esketamine 84 mg
# [2] = tested on: subjects with MDD at imminent risk for suicide; assay: Beck Scale for Suicidal Ideation (BSS), […]2001; assay type: in vivo, human; conditions: esketamine 84 mg; Day 1: 4-hours postdose, Day 2 (DB), or End Point (DB)
# Procedure: The BSS is a 21-item self-reported instrument to detect and measure the severity of suicidal ideation in adults and adolescents aged 17 years and older. The BSS total score represents the severity of suicide ideation, and it is calculated by summing the ratings of the first 19 items; the total score ranges from 0 to 38, with a higher score representing greater suicide ideation. Increasing scores reflect increases in suicidal risk.
# [3] = tested on: subjects with MDD at imminent risk for suicide; assay: MADRS total score, study […]2001; assay type: in vivo, human; conditions: esketamine 84 mg; baseline to Day 1, 4-hours postdose; ANCOVA
# From the text: Primary efficacy variable/Primary Time point: Change from baseline (Day 1, predose) to Day 1, 4-hours postdose in MADRS total score. The MADRS consists of 10 items that cover all of the core depressive symptoms, with each item scoring from 0 (item is not present or is normal) to 6 (severe or continuous presence of the symptom). A higher score represents a more severe condition.
# The primary efficacy endpoint is the change in MADRS total score from baseline to Day 1: 4-hours postdose. MADRS total scores range from 0 to 60. […] As this is a phase 2a proof-of-concept study, statistical significance is based on a two-sided alpha level of 0.20. All p-values presented in this document are two-sided.
# [4] = tested on: subjects with MDD at imminent risk for suicide; assay: Sustained response, response and remission based on MADRS, […]2001; assay type: in vivo, human; conditions: esketamine 84 mg; at least 50% MADRS reduction from Day 1 4 hours through Day 25
# From the text: • a. Changes from baseline to Day 2 and Day 25 for the MADRS total score • b. Changes from baseline to Day 1 4-hours postdose, Day 2 and Day 25 for the MADRS Suicide Item • c. Changes from baseline to Day 1 4-hours postdose, Day 2, and Day 25 for the clinical global judgment of suicide risk from the Suicide Ideation and Behavior Assessment Tool (SIBAT) • d. Sustained response (Onset of Clinical Response) defined as at least 50% reduction from baseline in MADRS total score with onset on Day 1 that is maintained through the end of the double-blind phase (Day 25) • e. Changes from baseline to Day 1 4-hours postdose, Day 2, and Day 25 for the Beck Scale for Suicidal Ideation (BSS) • f. Changes from baseline to Day 1 4-hours postdose and Day 25 for the Beck Hopelessness Scale
# Sustained response is defined as at least 50% reduction from baseline in MADRS total score with onset on Day 1: 4 hours postdose that is maintained through the end of the double-blind phase (Day 25). Four subjects in the esketamine 84 mg group and 2 subjects in the placebo group had sustained response throughout the double-blind phase.
smiles,measurement,setting,value
"CN[C@]1(c2ccccc2Cl)CCCCC1=O [esketamine, (S)-2-(2-chlorophenyl)-2-(methylamino)cyclohexanone]",Subjects who discontinued from the double-blind phase due to (treatment-emergent) adverse events,[1],5 subjects
same,Subjects with a serious TEAE,[1]; double-blind phase,Four
same,Subjects with at least one TEAE,[1]; double-blind phase,94.3%
same,TEAE dissociation,[1]; double-blind phase,31.4%
same,TEAE dizziness,[1]; double-blind phase,34.3%
same,TEAE dysgeusia,[1]; double-blind phase,31.4%
same,TEAE headache,[1]; double-blind phase,31.4%
same,TEAE nausea,[1]; double-blind phase,37.1%
same,TEAE vomiting,[1]; double-blind phase,20.0%
same,Subjects with a serious adverse event,[1]; follow up phase,1 subjects
same,Subjects with at least one adverse event,[1]; follow up phase,48.1%
same,BSS total score change vs placebo,[2],no statistically significant differences
same,"MADRS total score, least-square mean difference (SE) from placebo",[3],−5.3 (2.10)
same,Subjects with sustained response throughout the double-blind phase,[4],Four
